# Assay results: ChEMBL document CHEMBL4219190, “Studies on synthesis of novel pyrido[2,3-d]pyrimidine derivatives, evaluation of their antimicrobial activity and molecular docking” (Bioorg Med Chem Lett, 2018)
# Activity calls are given as the source filed them. The calls are words filed in the database; no cut-off is given here.
# What was measured:
# Raoultella planticola [1] = assay: Bactericidal activity against Klebsiella planticola MTCC 530 incubated for 24 hrs followed by transfer of microbial suspension to Mueller Hinton agar plates and measured after 24 hrs post transfer; format: functional; conditions: MTCC 530, 24 h
# Pichia kudriavzevii [2] = assay: Antifungal activity against Candida krusei MTCC 3020 after 24 hrs by well diffusion method; format: functional
# [Candida] aaseri [3] = Antifungal activity against Candida aaseri MTCC 1962 after 24 hrs by well diffusion method; format: functional; conditions: Yamadazyma aaseri, MTCC 1962, 24 h
# Escherichia coli [4] = assay: Bactericidal activity against Escherichia coli MTCC 739 incubated for 24 hrs followed by transfer of microbial suspension to Mueller Hinton agar plates and measured after 24 hrs post transfer; format: functional; conditions: MTCC 739, 24 h
# Staphylococcus aureus [5] = assay: Antibacterial activity against Staphylococcus aureus MLS16 MTCC 2940 after 24 hrs by well diffusion method; format: functional; conditions: MLS16 MTCC 2940, 24 h
# Bacillus subtilis [6] = assay: Antibacterial activity against Bacillus subtilis MTCC 121 after 24 hrs by well diffusion method; format: functional; conditions: MTCC 121, 24 h
# Candida parapsilosis [7] = assay: Antifungal activity against Candida parapsilosis MTCC 1744 after 24 hrs by well diffusion method; format: functional; conditions: MTCC 1744, 24 h
# [Candida] aaseri [8] = Fungicidal activity against Candida aaseri MTCC 1962 incubated for 24 hrs followed by transfer of microbial suspension to Sabouraud dextrose agar plates and measured after 24 hrs post transfer; format: functional; conditions: Yamadazyma aaseri, MTCC 1962, 24 h
# Pseudomonas aeruginosa [9] = assay: Antibacterial activity against Pseudomonas aeruginosa MTCC 2453 after 24 hrs by well diffusion method; format: functional; conditions: MTCC 2453, 24 h
# Staphylococcus aureus [10] = assay: Antibiofilm activity against Staphylococcus aureus MLS16 MTCC 2940 after 24 hrs by crystal violet staining-based assay; format: functional, organism-based; conditions: Staphylococcus aureus, MLS16 MTCC 2940, 24 h; read-out: IC50
# Candida albicans [11] = assay: Antifungal activity against Candida albicans MTCC 4748 after 24 hrs by well diffusion method; format: functional
# Candida albicans [12] = assay: Antifungal activity against Candida albicans MTCC 1637 after 24 hrs by well diffusion method; format: functional; conditions: MTCC 1637, 24 h
# Candida albicans [13] = assay: Fungicidal activity against Candida albicans MTCC 183 incubated for 24 hrs followed by transfer of microbial suspension to Sabouraud dextrose agar plates and measured after 24 hrs post transfer; format: functional; conditions: MTCC 183, 24 h
# Staphylococcus aureus [14] = assay: Antibacterial activity against Staphylococcus aureus MTCC 96 after 24 hrs by well diffusion method; format: functional; conditions: MTCC 96, 24 h
# Candida albicans [15] = assay: Fungicidal activity against Candida albicans MTCC 7315 incubated for 24 hrs followed by transfer of microbial suspension to Sabouraud dextrose agar plates and measured after 24 hrs post transfer; format: functional; conditions: MTCC 7315, 24 h
# Candida albicans [16] = assay: Antifungal activity against Candida albicans MTCC 7315 after 24 hrs by well diffusion method; format: functional; conditions: MTCC 7315, 24 h
# Candida albicans [17] = assay: Antifungal activity against Candida albicans MTCC 3017 after 24 hrs by well diffusion method; format: functional; conditions: MTCC 3017, 24 h
# Candida albicans [18] = assay: Antifungal activity against Candida albicans MTCC 854 after 24 hrs by well diffusion method; format: functional; conditions: MTCC 854, 24 h
# Micrococcus luteus [19] = assay: Antibacterial activity against Micrococcus luteus MTCC 2470 after 24 hrs by well diffusion method; format: functional; conditions: MTCC 2470, 24 h
# Candida albicans [20] = assay: Fungicidal activity against Candida albicans MTCC 854 incubated for 24 hrs followed by transfer of microbial suspension to Sabouraud dextrose agar plates and measured after 24 hrs post transfer; format: functional; conditions: MTCC 854, 24 h
# Candida albicans [21] = assay: Fungicidal activity against Candida albicans MTCC 3017 incubated for 24 hrs followed by transfer of microbial suspension to Sabouraud dextrose agar plates and measured after 24 hrs post transfer; format: functional; conditions: MTCC 3017, 24 h
# Candida albicans [22] = assay: Antifungal activity against Candida albicans MTCC 227 after 24 hrs by well diffusion method; format: functional; conditions: MTCC 227, 24 h
# Staphylococcus aureus [23] = assay: Antibiofilm activity against Staphylococcus aureus MTCC 96 after 24 hrs by crystal violet staining-based assay; format: functional, organism-based; conditions: Staphylococcus aureus, MTCC 96, 24 h; read-out: IC50
# Candida albicans [24] = assay: Fungicidal activity against Candida albicans MTCC 1637 incubated for 24 hrs followed by transfer of microbial suspension to Sabouraud dextrose agar plates and measured after 24 hrs post transfer; format: functional; conditions: MTCC 1637, 24 h
# Candida albicans [25] = assay: Antifungal activity against Candida albicans MTCC 3018 after 24 hrs by well diffusion method; format: functional
# Nakaseomyces glabratus [26] = assay: Fungicidal activity against Candida glabrata MTCC 3019 incubated for 24 hrs followed by transfer of microbial suspension to Sabouraud dextrose agar plates and measured after 24 hrs post transfer; format: functional; conditions: MTCC 3019, 24 h
# Nakaseomyces glabratus [27] = assay: Antifungal activity against Candida glabrata MTCC 3019 after 24 hrs by well diffusion method; format: functional; conditions: MTCC 3019, 24 h
# Bacillus subtilis [28] = assay: Bactericidal activity against Bacillus subtilis MTCC 121 incubated for 24 hrs followed by transfer of microbial suspension to Mueller Hinton agar plates and measured after 24 hrs post transfer; format: functional; conditions: MTCC 121, 24 h
# Pichia sporocuriosa [29] = assay: Fungicidal activity against Issatchenkia hanoiensis MTCC 4755 incubated for 24 hrs followed by transfer of microbial suspension to Sabouraud dextrose agar plates and measured after 24 hrs post transfer; format: functional; conditions: MTCC 4755, 24 h
# Escherichia coli [30] = assay: Antibacterial activity against Escherichia coli MTCC 739 after 24 hrs by well diffusion method; format: functional; conditions: MTCC 739, 24 h
# Candida albicans [31] = assay: Antifungal activity against Candida albicans MTCC 3958 after 24 hrs by well diffusion method; format: functional
# Staphylococcus aureus [32] = assay: Bactericidal activity against Staphylococcus aureus MLS16 MTCC 2940 incubated for 24 hrs followed by transfer of microbial suspension to Mueller Hinton agar plates and measured after 24 hrs post transfer; format: functional; conditions: MLS16 MTCC 2940, 24 h
# Pichia kudriavzevii [33] = assay: Fungicidal activity against Candida krusei MTCC 3020 incubated for 24 hrs followed by transfer of microbial suspension to Sabouraud dextrose agar plates and measured after 24 hrs post transfer; format: functional
# Pseudomonas aeruginosa [34] = assay: Antibiofilm activity against Pseudomonas aeruginosa MTCC 2453 after 24 hrs by crystal violet staining-based assay; format: functional, organism-based; conditions: Pseudomonas aeruginosa, MTCC 2453, 24 h; read-out: IC50
# Candida albicans [35] = assay: Antifungal activity against Candida albicans MTCC 183 after 24 hrs by well diffusion method; format: functional; conditions: MTCC 183, 24 h
# Bacillus subtilis [36] = assay: Antibiofilm activity against Bacillus subtilis MTCC 121 after 24 hrs by crystal violet staining-based assay; format: functional, organism-based; conditions: Bacillus subtilis, MTCC 121, 24 h; read-out: IC50
# Staphylococcus aureus [37] = assay: Bactericidal activity against Staphylococcus aureus MTCC 96 incubated for 24 hrs followed by transfer of microbial suspension to Mueller Hinton agar plates and measured after 24 hrs post transfer; format: functional; conditions: MTCC 96, 24 h
# Candida albicans [38] = assay: Fungicidal activity against Candida albicans MTCC 4748 incubated for 24 hrs followed by transfer of microbial suspension to Sabouraud dextrose agar plates and measured after 24 hrs post transfer; format: functional
# Pichia sporocuriosa [39] = assay: Antifungal activity against Issatchenkia hanoiensis MTCC 4755 after 24 hrs by well diffusion method; format: functional; conditions: MTCC 4755, 24 h
# Raoultella planticola [40] = assay: Antibiofilm activity against Klebsiella planticola MTCC 530 after 24 hrs by crystal violet staining-based assay; format: functional, organism-based; conditions: Klebsiella planticola, MTCC 530, 24 h; read-out: IC50
# Candida parapsilosis [41] = assay: Fungicidal activity against Candida parapsilosis MTCC 1744 incubated for 24 hrs followed by transfer of microbial suspension to Sabouraud dextrose agar plates and measured after 24 hrs post transfer; format: functional; conditions: Lodderomyces parapsilosis, MTCC 1744, 24 h
# Raoultella planticola [42] = assay: Antibacterial activity against Klebsiella planticola MTCC 530 after 24 hrs by well diffusion method; format: functional; conditions: MTCC 530, 24 h
# Micrococcus luteus [43] = assay: Bactericidal activity against Micrococcus luteus MTCC 2470 incubated for 24 hrs followed by transfer of microbial suspension to Mueller Hinton agar plates and measured after 24 hrs post transfer; format: functional; conditions: MTCC 2470, 24 h
# Pseudomonas aeruginosa [44] = assay: Bactericidal activity against Pseudomonas aeruginosa MTCC 2453 incubated for 24 hrs followed by transfer of microbial suspension to Mueller Hinton agar plates and measured after 24 hrs post transfer; format: functional; conditions: MTCC 2453, 24 h
# Candida albicans [45] = assay: Fungicidal activity against Candida albicans MTCC 227 incubated for 24 hrs followed by transfer of microbial suspension to Sabouraud dextrose agar plates and measured after 24 hrs post transfer; format: functional; conditions: MTCC 227, 24 h
# Candida albicans [46] = assay: Fungicidal activity against Candida albicans MTCC 3958 incubated for 24 hrs followed by transfer of microbial suspension to Sabouraud dextrose agar plates and measured after 24 hrs post transfer; format: functional
# Candida albicans [47] = assay: Fungicidal activity against Candida albicans MTCC 3018 incubated for 24 hrs followed by transfer of microbial suspension to Sabouraud dextrose agar plates and measured after 24 hrs post transfer; format: functional
smiles,measurement,setting,value
O=C(c1nc(-c2ccccc2)c2c(C(F)(F)F)cc(-c3ccccc3)nc2n1)N1CCN(CCO)CC1,MBC,Raoultella planticola [1],31.2 µg/mL
same,MIC,Pichia kudriavzevii [2],inactive
same,MIC,[Candida] aaseri [3],31.2 µg/mL
same,MBC,Escherichia coli [4],31.2 µg/mL
same,MIC,Staphylococcus aureus [5],15.6 µg/mL
same,MIC,Bacillus subtilis [6],31.2 µg/mL
same,MIC,Candida parapsilosis [7],31.2 µg/mL
same,MFC,[Candida] aaseri [8],62.5 µg/mL
same,MIC,Pseudomonas aeruginosa [9],15.6 µg/mL
same,IC50,Staphylococcus aureus [10],10.8 µg/mL
same,MIC,Candida albicans [11],inactive
same,MIC,Candida albicans [12],15.6 µg/mL
same,MFC,Candida albicans [13],7.8 µg/mL
same,MIC,Staphylococcus aureus [14],7.8 µg/mL
same,MFC,Candida albicans [15],62.5 µg/mL
same,MIC,Candida albicans [16],62.5 µg/mL
same,MIC,Candida albicans [17],3.9 µg/mL
same,MIC,Candida albicans [18],7.8 µg/mL
same,MIC,Micrococcus luteus [19],15.6 µg/mL
same,MFC,Candida albicans [20],15.6 µg/mL
same,MFC,Candida albicans [21],7.8 µg/mL
same,MIC,Candida albicans [22],7.8 µg/mL
same,IC50,Staphylococcus aureus [23],2.7 µg/mL
same,MFC,Candida albicans [24],31.2 µg/mL
same,MIC,Candida albicans [25],inactive
same,MFC,Nakaseomyces glabratus [26],31.2 µg/mL
same,MIC,Nakaseomyces glabratus [27],15.6 µg/mL
same,MBC,Bacillus subtilis [28],31.2 µg/mL
same,MFC,Pichia sporocuriosa [29],31.2 µg/mL
same,MIC,Escherichia coli [30],15.6 µg/mL
same,MIC,Candida albicans [31],inactive
same,MBC,Staphylococcus aureus [32],31.2 µg/mL
same,MFC,Pichia kudriavzevii [33],inactive
same,IC50,Pseudomonas aeruginosa [34],10.8 µg/mL
same,MIC,Candida albicans [35],3.9 µg/mL
same,IC50,Bacillus subtilis [36],21.6 µg/mL
same,MBC,Staphylococcus aureus [37],15.6 µg/mL
same,MFC,Candida albicans [38],inactive
same,MIC,Pichia sporocuriosa [39],15.6 µg/mL
same,IC50,Raoultella planticola [40],5.4 µg/mL
same,MFC,Candida parapsilosis [41],62.5 µg/mL
same,MIC,Raoultella planticola [42],15.6 µg/mL
same,MBC,Micrococcus luteus [43],31.2 µg/mL
same,MBC,Pseudomonas aeruginosa [44],31.2 µg/mL
same,MFC,Candida albicans [45],15.6 µg/mL
same,MFC,Candida albicans [46],inactive
same,MFC,Candida albicans [47],inactive
